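Following 48 hours of exposure in 96-well plates, responses at five concentrations were used to interpolate endpoints linearly. The concentration for full growth arrest is given as TGI.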
What was measured:
Experiment in all cases: NCI-60 cell line screen, 48 h
[1] = tested on: U251 CNS
[2] = tested on: HCT-116 colon
[3] = tested on: COLO 205 colon
[4] = tested on: NCI-H226 lung
[5] = tested on: HT29 colon
[6] = tested on: OVCAR-5 ovarian
[7] = tested on: T-47D breast
[8] = tested on: SK-MEL-5 melanoma
[9] = tested on: A498 renal
[10] = tested on: MDA-MB-231 breast
[11] = tested on: SR leukemia
[12] = tested on: RXF 393 renal
[13] = tested on: SF-268 CNS
[14] = tested on: TK-10 renal
[15] = tested on: OVCAR-3 ovarian
[16] = tested on: HOP-92 NSCLC
[17] = tested on: IGROV1 ovarian
[18] = tested on: MOLT-4 leukemia
[19] = tested on: SF-539 CNS
[20] = tested on: HOP-18 NSCLC

Row | SMILES | TGI [1] [µM] | TGI [2] [µM] | TGI [3] [µM] | TGI [4] [µM] | TGI [5] [µM] | TGI [6] [µM] | TGI [7] [µM] | TGI [8] [µM] | TGI [9] [µM] | TGI [10] [µM] | TGI [11] [µM] | TGI [12] [µM] | TGI [13] [µM] | TGI [14] [µM] | TGI [15] [µM] | TGI [16] [µM] | TGI [17] [µM] | TGI [18] [µM] | TGI [19] [µM] | TGI [20] [µM]
1 | CN(CCCCN1CCCC1)CCCCN(C)C(=O)Cc1ccc(Cl)c(Cl)c1 | 27.8 | 29.3 | 27.4 | 41.8 | 15.4 | 41.2 | 40.7 | 19.9 | 32.4 | 23.5 | 14.3 | 25.9 | 39.8 | 32.6 | 44.5 | 17.5 | 37 | 22.1 | 23.3 | 
2 | N#CC(c1ccccc1)N(CCc1ccccc1)C(=O)c1ccccc1 (stereo unspecified) | > 100 | > 100 | > 100 | > 100 | > 100 | > 100 | > 100 | > 100 | > 100 | > 100 | > 100 | > 100 | > 86.5 | > 100 | > 100 | 59.7 | > 100 | > 100 | > 84.7 | 
3 | COc1ccc2c(c1)CCC(CN1CCN(CCOC(c3ccc(F)cc3)c3ccc(F)cc3)CC1)C2O (stereo unspecified) | 26.1 | 23.8 | 20.2 | 39.8 | 18.4 | 28.6 | 39 | 20.1 | 19.9 | 27.4 | > 100 | 26.3 | 27 | 29.7 | 32.5 | 26.7 | 28.4 | 36.2 | 51.6 | 
4 | CC(=O)Nc1ccc(-c2nc3ccccc3s2)cc1Cl | > 100 | > 100 | > 100 | > 100 | > 100 | > 100 | > 100 | > 100 | > 100 | > 100 | > 100 | 90.3 | > 100 | 0.445 | > 100 | > 100 | > 100 | > 100 | > 100 | 
5 | C=CCOc1ccc(C2(c3ccc(OCC=C)cc3)C(=O)Nc3ccccc32)cc1 | > 10 | > 10 | > 10 | > 10 | > 10 | > 10 | > 10 | > 10 | > 10 | > 10 | > 10 | > 10 | > 10 | > 10 | > 10 | > 10 | > 10 | > 10 | > 10 | 
6 | CSC1=C(C#N)C(=O)N(c2ccc(Cl)cc2)C(=O)C1C#N (stereo unspecified) | > 100 | > 100 | > 100 | > 100 | > 100 | > 100 | > 100 | > 100 | > 100 | > 100 | > 100 | > 100 | > 100 | > 100 | > 100 | 76.9 | > 100 | > 100 | > 100 | 
7 | CC(=O)/C(N=Nc1ccc(-n2c(C)nc3ccc(Br)cc3c2=O)cc1)=C(/C)O | > 100 | > 100 | > 100 | > 100 | > 100 | > 100 | > 100 | > 100 | > 100 | > 100 | > 100 |  | > 100 | > 100 | > 100 | > 100 | > 100 | > 100 | > 100 | 
8 | CN(C)Cc1cc(N=Nc2ccccc2Cl)ccc1O | 59.3 | > 100 | 28.6 | 40 | 33.7 | 63.2 | 71.5 | 24.6 | 26.1 | 86.4 | > 100 | 60.8 | > 100 | 65.8 | 66.9 | > 100 | > 100 | 28.3 | 59.5 | 
9 | CC(C)C(C/C=C1/CC(CO)(COC(=O)C(C)(C)C)OC1=O)C(C)C (stereo unspecified) | 27.5 | 27.5 | 5.32 | 22.7 | 32.3 | 24.3 | 23.3 | 20.7 | 21.8 | 17.1 | > 50.5 | 30.5 | 23.5 | 18 | 29.9 | 25.3 | 31.5 | 35.6 | 15.4 | 
10 | O=C1N(CN2CCOCC2)CN(CN2CCOCC2)C(=O)N1Cc1ccc(-c2ccc(CN3C(=O)N(CN4CCOCC4)CN(CN4CCOCC4)C3=O)cc2)cc1 | > 70.8 | 29.7 | > 41.9 | > 77.3 | > 100 | 39.8 | > 100 | > 38.9 | 44.1 | > 73.9 | 18.9 | 27.3 | 59.3 | 43.4 | 30 | 36.4 | 46.4 | > 100 | > 74.3 | 
11 | O=C(CSc1nnc(Cc2ccccc2)o1)Nc1ccccc1Cl | > 100 | > 100 | > 100 | > 100 | > 100 | > 100 |  | > 100 | > 100 |  |  |  | > 100 | > 100 | > 100 |  | > 100 | > 100 | > 100 | > 100
12 | COc1cc2c(cc1OC)C(=O)Cc1ccc3c(c1CNCC2)OCO3 | > 100 | > 100 | > 100 |  | > 100 | > 100 |  | > 100 | > 100 |  |  |  | > 100 | > 100 | > 100 |  | > 100 | > 100 | > 100 | > 100
13 | c1cc2[nH]snc2c2cncc12 |  | > 100 | > 100 | > 100 | > 100 | > 100 | > 100 | > 100 | > 100 | > 100 | > 100 | > 100 | > 100 | > 100 | > 100 | 85.7 | > 100 | > 100 | > 100 | 
